Measured values taken from patent US20260364101A1, “OLEUROPEIN IN THE MANAGEMENT OF CANCER” (FUNDACIÓN MIGUEL SERVET, priority 2023, published 2026).

Assays:
MDSCs = assay: ex vivo differentiated MDSCs treated with compound, marker expression by flow cytometry (FIG. 1a); format: cell-based, mouse; details: oleuropein 50 μM
Protocol: (§1) Immunosuppressive myeloid cell subsets resembling tumor-infiltrating subsets (g-MDSCs, m-MDSCs and TAMs) were differentiated from mouse bone marrow following published procedures using conditioning medium produced by LLC tumor cells stably expressing GMCSF and MCSF cells. g- and m-MDSCs were purified using the myeloid-derived suppressor cell isolation kit (Miltenyi Biotec, Bergisch, Germany) according to manufacturer's recommendations. MDSCs and TAMs were seeded with 500 nM BML-275 or 50 μM oleuropein and incubated for seven days.
Surface and intracellular staining were carried out as described before with the following fluorochrome-conjugated antibody clones: AF488 anti-CD49d (R1-2), PE anti-CD4 (GK1.5), APCanti-CD8(53-6.7), brilliant Violet 510™ anti-I-A/I-E (M5/114.15.2,PE/Cyanine7anti-Ly-6G (1A8), and APC anti-CD80 (16-10A1) (Biolegend), FITC anti-IL-12 (C15.6) and BV421 anti-IL-2 (JES6-5H4) (BD Bioscience), APC-Vio® 770 anti-Ly-6C (REA796), PE REAfinity™ anti-F4/80 (REA126), and APC anti-CD68 (REA886) (Miltenyi), PerCP-Cyanine5.5 Anti-Human/Mouse CD11b (M1/70) (Tonbo), and AF488 anti-IFNγ (Clone XMG1.2) (BD Pharmigen). For human cells, it was used the following fluorochrome-conjugated antibodies: PerCP-Cy5.5-anti-CD11b (integrina alfa M) (M1/70), Violet Fluor 450 anti-CD14 antibody (61D3) (Tonbo), PE anti-CD115 (CSF-1R) (9-4D2-1E4) (Biolegend), PE-Cy™7 anti-CD11c (Clone B-ly6) (BD Bioscience), and APC anti-HLA-DR (REA517) (Miltenyi).
Data were collected using the FACSCanto Flow Cytometer (BD Biosciences) for ex vivo and in vitro experiments at Navarrabiomed Biomedical Research Center and Cyroflex LX flow cytometer (Beckman Counter). Data were analyzed with Flowjo.

m-MDSC = assay: quantitative proteomics and Ingenuity Pathway Analysis of m-MDSC; format: cell-based, mouse
Protocol: as §1
A unique proteomic experiment was carried out with five biological replicates per sample (m-MDSC, g-MDSC and TAM). Cells were homogenized in a lysis buffer containing 7 M urea, 2 M thiourea 50 mM DTT. The homogenates were spun down at 14000 g for 1 h at 15 °C. Before proteomic analysis, protein extracts were diluted with Laemmli sample buffer in 100 μL and loaded into a 0.75 mm thick polyacrylamide gel with a 4% stacking gel casted over a 12.5% resolving gel. The run was stopped as soon as the front entered 3 mm into the resolving gel so that the whole proteome became concentrated in the stacking/resolving gel interface. Bands were stained with Coomassie Brilliant Blue, excised from the gel and protein enzymatic cleavage was carried out with trypsin (Promega; 1:20, w/w) at 37 °C for 16 h as previously described. Purification and concentration of peptides was performed using C18 Zip Tip Solid Phase Extraction (Millipore).
Peptide mixtures were separated by reverse phase chromatography using an UltiMate 3000 UHLPC System (Thermo Scientific) fitted with an Aurora packed emitter column (lonopticks, 25 cm×75 μm ID, 1.6 μm C18). Samples were first loaded for desalting and concentration into an Acclaim PepMap column (ThermoFisher, 0.5 cm×300 μm ID, 5 μm C18) packed with the same chemistry as the separating column. Mobile phases were 100% water 0.1% formic acid (FA) (buffer A) and 100% Acetonitrile 0.1% FA (buffer B). Column gradient was developed in a 120 min two step gradient from 5% B to 20% B in 90 min and 20% B to 32% B in 30 min. Column was equilibrated in 95% B for 10 min and 5% B for 20 min. During the whole process, the precolumn was in line with the column and the flow maintained all along the gradient at 300 nl/min. The column temperature was maintained at 40 °C using an integrated column oven (PRSO-V2, Sonation, Biberach, Germany) and interfaced online with the Orbitrap Exploris 480 MS. Spray voltage were set to 2 kV, funnel RF level at 40, and heated capillary temperature at 300 °C. For DDA experiments full MS resolutions were set to […] at m/z 200 and full MS AGC target was set to Standard with an IT mode Auto. Mass range was set to 375-1500. AGC target value for fragment spectra was set to Standard with a resolution of 15,000 and 3 seconds for cycle time. The intensity threshold was kept at 8E3. Isolation width was set at 1.4 m/z. Normalized collision energy was set at 30%. All data were acquired in centroid mode using positive polarity and peptide match was set to off, and isotope exclusion was on.
Raw files were processed with MaxQuant v1.6.17.0 using the integrated Andromeda Search engine. All data were searched against a target/decoy version of the mouse Uniprot Reference Proteome with March 2021 release. First search peptide tolerance was set to 20 ppm, main search peptide tolerance was set to 4.5 ppm. Fragment mass tolerance was set to 20 ppm. Trypsin was specified as enzyme, […] carbamidomethylation of cysteine was specified as fixed modification and peptide N-terminal acetylation, oxidation of methionine, deamidation of asparagine and glutamine and pyro-glutamate formation from glutamine and glutamate were considered variable modifications with a total of two variable modifications per peptide. […]

MDSC subsets = assay: abundance of MDSC subsets in vivo; details: LXR agonist
TAMs = assay: morphology of ex vivo TAM cultures, phase contrast micrographs (FIG. 2a); format: cell-based, mouse; details: TAMs treated with oleuropein
Protocol: as §1

## C/C=C1/[C@H](O[C@@H]2O[C@H](CO)[C@@H](O)[C@H](O)[C@H]2O)OC=C(C(=O)OC)[C@H]1CC(=O)OCCc1ccc(O)c(O)c1 [oleuropein]
MDSCs
  polarization of MDSCs: polarized MDSCs and TAMs into activated myeloid cells
MDSCs; MDSCs
  IL-12: significant increase
m-MDSC; IPA, m-MDSC
  BAG2 signalling: activated
  EIF2 signalling: activated
  FAT10 signalling: down-modulated
  NRF2-mediated oxidative stress response: downregulated
  granzyme A signalling: activated
  production of proinflammatory cytokines: down-modulated
  sirtuin signalling: activated
  upstream regulator PTEN: increase
  upstream regulator methylprednisolone: decrease
m-MDSC; m-MDSC
  effect over m-MDSC intracellular regulatory pathways: potent effect over m-MDSC intracellular regulatory pathways
m-MDSC; m-MDSC treated with oleuropein, data not shown
  proteins differentially regulated: 912 proteins
MDSC subsets
  abundance of MDSC subsets and of immunosuppressive TME: reduced the abundance of MDSC subsets in vivo as well as of immunosuppressive TME
TAMs
  morphology / phenotype: acquired an M1-like phenotype
